Laboratory results taken from patent US10344019B2 (priority 2010, dated 2019).
Read-outs that look alike come from different tables or passages of the source.

Key:
Assay type in all cases: cell-based
[1] = test system: HCV 1a RLuc cells (dicistronic genotype 1a H77 replicon, RLuc reporter); assay: microbe, parasite or virus in culture; details: Hepatitis C virus, read-out: 1a
Procedure, shortened: (§1)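 Replicon cells stably carrying the listed RLuc-encoding dicistronic replicons were seeded and treated with DMSO serial dilutions of compound (10 mM stocks) diluted into culture medium. After 72 h, cells were lysed and Renilla luciferase activity measured. EC50 was derived by non-linear regression.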

[2] = test system: HCV 1b RLuc cells (dicistronic genotype 1b Con1 replicon, RLuc reporter); assay: microbe, parasite or virus in culture; details: Hepatitis C virus, read-out: 1b (nM)
Procedure, shortened: as §1

[3] = test system: HCV 2a JFH-1 Rluc cells (dicistronic genotype 2a JFH-1 replicon, RLuc reporter); assay: microbe, parasite or virus in culture; details: Hepatitis C virus, read-out: 2a JFH
Procedure, shortened: as §1

[4] = test system: HCV 2b Rluc cells (NS5A chimeric genotype 2a JFH-1 replicon with genotype 2b MD2b-1 NS5A gene, M31 present); assay: microbe, parasite or virus in culture; details: Hepatitis C virus, read-out: 2b
Procedure, shortened: as §1

[5] = test system: HCV 3a RLuc cells (NS5A chimeric genotype 1b Con1 replicon with consensus genotype 3a NS5A gene); assay: microbe, parasite or virus in culture; details: Hepatitis C virus
Procedure, shortened: as §1

[6] = test system: HCV 4a Rluc cells (NS5A chimeric genotype 1b Con1 replicon with genotype 4a NS5A gene); assay: microbe, parasite or virus in culture; details: Hepatitis C virus, read-out: 4a
Procedure, shortened: as §1

[7] = test system: Q30R in genotype 1a NS5A, 1a Rluc replicon transfected into Huh-7 cured-51 cells; assay: HCV replicon assay, resistance mutant 1a Q30R; details: Hepatitis C virus, Huh-7, read-out: 1a Q30R
Procedure, shortened: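 Q30R introduced into genotype 1a H77 RLuc replicon by site-directed mutagenesis; replicon RNA transfected into Huh-7 cured-51 cells.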

[8] = test system: HCV 2a Rluc cells (NS5A chimeric genotype 2a JFH-1 replicon with genotype 2a J6 strain NS5A gene, M31 present); assay: HCV replicon reporter assay, genotype 2a J6 (M31 present); details: Hepatitis C virus, read-out: 2a J6
Procedure, shortened: as §1

[9] = read-out: 3a, genotype 3a replicon
[10] = 72 h, Table 1, genotype 1a H77 replicon, 72 hours
[11] = 72 h, Table 1, genotype 2a JFH-1 replicon, 72 hours
[12] = read-out: 3a, Table 1, genotype 3a NS5A chimeric replicon
[13] = genotype 2a JFH-1 RLuc replicon
[14] = read-out: 3a, genotype 3a NS5A chimeric replicon

Row | Structure (SMILES) | EC50 ([1]; genotype 1a replicon) [nM] | EC50 [2] [nM] | EC50 ([3]; genotype 2a JFH-1 replicon) [nM] | EC50 [4] [nM] | EC50 [5, 9] [nM] | EC50 [6] [nM] | EC50 [7] [nM] | EC50 [8] [nM] | EC50 [1, 10] [nM] | EC50 ([2]; 72 h) [nM] | EC50 [3, 11] [nM] | EC50 [5, 12] [nM] | EC50 ([1]; 72 h, Table 2, genotype 1a H77 replicon, 72 hours) [nM] | EC50 ([3]; 72 h, Table 2, genotype 2a JFH-1 replicon, 72 hours) [nM] | EC50 ([5]; read-out: 3a, Table 2, genotype 3a NS5A chimeric replicon) [nM] | EC50 ([1]; genotype 1a H77 RLuc replicon) [nM] | EC50 [3, 13] [nM] | EC50 [5, 14] [nM]
1 | COC[C@H]1CC(c2nc3ccc4cc(-c5ccc(-c6cnc([C@@H]7CCCN7C(=O)[C@H](NC(=O)C7CC7)c7ccccc7)[nH]6)cc5)ccc4c3[nH]2)N(C(=O)[C@@H](NC(=O)OC)C(C)C)C1 (stereo in doubt) [Example 425] | 0.001 to 0.999 | 0.034 | 0.001 to 0.999 | 0.001 to 0.999 | 0.001 to 0.99 | 0.001 to 0.99 | 0.001 to 0.999 | 0.001 to 0.999 | – | – | – | – | – | – | – | – | – | –
2 | COC(=O)N[C@H](C(=O)N1CCC[C@H]1c1ncc(-c2cc3c4c(c2)OCc2cc(-c5cnc([C@@H]6CCCN6C(=O)[C@H](NC(=O)OC)c6ccccc6)[nH]5)cc(c2-4)OC3)[nH]1)C(C)C [Example 25c] | – | – | – | 0.001 to 0.999 | – | 0.001 to 0.99 | 0.001 to 0.999 | 1 to 44 | 0.001 to 0.999 | 0.031 | 0.001 to 0.999 | 0.001 to 0.99 | – | – | – | – | – | –
3 | COC(=O)N[C@@H](C(=O)N1CCC[C@H]1c1ncc(-c2cc3c4c(c2)OCc2cc(-c5cnc([C@@H]6CCCN6C(=O)[C@H](NC(=O)OC)c6ccccc6)[nH]5)cc(c2-4)OC3)[nH]1)c1ccccc1 [Example 25d] | – | – | – | 0.001 to 0.999 | – | 0.001 to 0.99 | 0.001 to 0.999 | 0.001 to 0.999 | 0.001 to 0.999 | 0.048 | 0.001 to 0.999 | 0.001 to 0.99 | – | – | – | – | – | –
4 | COC(=O)N[C@H](C(=O)N1CCC[C@H]1c1nc2ccc3cc(-c4ccc5c(ccc6nc([C@@H]7[C@H]8CC[C@H](C8)N7C(=O)[C@@H](NC(=O)OC)C(C)C)[nH]c65)c4)ccc3c2[nH]1)C(C)C [Example 63] | – | – | – | > 44 | – | 0.001 to 0.99 | 1 to 44 | 1 to 44 | – | 0.019 | – | – | 0.001 to 0.999 | 0.001 to 0.999 | 0.001 to 0.99 | – | – | –
5 | COC(=O)N[C@H](C(=O)N1CCC[C@H]1c1nc2ccc3cc(-c4ccc5c(ccc6nc([C@@H]7CC8(CN7C(=O)[C@H](NC(=O)OC)c7ccccc7)OCCO8)[nH]c65)c4)ccc3c2[nH]1)C(C)C [Example 317] | 0.001 to 0.999 | 0.023 | 0.001 to 0.999 | 0.001 to 0.999 | 0.001 to 0.99 | 0.001 to 0.99 | 0.001 to 0.999 | 0.001 to 0.999 | – | – | – | – | – | – | – | – | – | –
6 | COC(=O)N[C@H](C(=O)N1CCC[C@H]1c1nc2ccc3cc(-c4ccc5c(ccc6nc([C@@H]7[C@H]8CC[C@H](C8)N7C(=O)[C@H](NC(=O)OC)c7ccccc7)[nH]c65)c4)ccc3c2[nH]1)C(C)C [Example 325] | 0.001 to 0.999 | 0.018 | 0.001 to 0.999 | 1 to 44 | 0.001 to 0.99 | 0.001 to 0.99 | 1 to 44 | 0.001 to 0.999 | – | – | – | – | – | – | – | – | – | –
7 | COC(=O)N[C@H](C(=O)N1CCC[C@H]1c1nc2ccc3cc(-c4ccc5c(ccc6nc([C@@H]7[C@@H]8CC[C@@H](C8)N7C(=O)[C@@H](NC(=O)OC)C(C)C)[nH]c65)c4)ccc3c2[nH]1)C(C)C [Example 339] | 0.001 to 0.999 | 0.026 | 0.001 to 0.999 | 1 to 44 | 0.001 to 0.99 | 0.001 to 0.99 | 1 to 44 | 0.001 to 0.999 | – | – | – | – | – | – | – | – | – | –
8 | COC[C@@H]1C[C@@H](c2nc3ccc4cc(-c5ccc6c(ccc7nc([C@@H]8CCCN8C(=O)[C@@H](NC(=O)OC)C(C)C)[nH]c76)c5)ccc4c3[nH]2)N(C(=O)[C@@H](NC(=O)OC)C(C)C)C1 [Example 397] | 0.001 to 0.999 | 0.017 | 0.001 to 0.999 | 0.001 to 0.999 | 0.001 to 0.99 | 0.001 to 0.99 | 0.001 to 0.999 | 0.001 to 0.999 | – | – | – | – | – | – | – | – | – | –
9 | COC[C@H]1C[C@@H](c2nc3ccc4cc(-c5ccc6c(ccc7nc([C@@H]8CCCN8C(=O)[C@@H](NC(=O)OC)C(C)C)[nH]c76)c5)ccc4c3[nH]2)N(C(=O)[C@@H](NC(=O)OC)C(C)C)C1 [Example 398] | 0.001 to 0.999 | 0.023 | 0.001 to 0.999 | 0.001 to 0.999 | 0.001 to 0.99 | 0.001 to 0.99 | 0.001 to 0.999 | 0.001 to 0.999 | – | – | – | – | – | – | – | – | – | –
10 | COC(=O)N[C@H](C(=O)N1[C@@H]2C[C@@H]2C[C@H]1c1ncc(-c2cc3c4c(c2)OCc2cc(-c5cnc([C@@H]6C[C@H]7C[C@H]7N6C(=O)[C@@H](NC(=O)OC)C(C)C)[nH]5)cc(c2-4)OC3)[nH]1)C(C)C [Example 414] | 0.001 to 0.999 | 0.022 | 0.001 to 0.999 | 1 to 44 | 0.001 to 0.99 | 0.001 to 0.99 | 1 to 44 | 1 to 44 | – | – | – | – | – | – | – | – | – | –
11 | CCC(=O)N[C@@H](C(=O)N1[C@@H]2CC[C@@H](C2)[C@H]1c1nc2ccc3cc(-c4ccc5c(ccc6nc([C@@H]7CCCN7C(=O)[C@@H](NC(=O)OC)C(C)C)[nH]c65)c4)ccc3c2[nH]1)c1ccccc1 [Example 418] | 0.001 to 0.999 | 0.035 | 0.001 to 0.999 | 0.001 to 0.999 | 0.001 to 0.99 | 0.001 to 0.99 | 1 to 44 | 0.001 to 0.999 | – | – | – | – | – | – | – | – | – | –
12 | COC(=O)N[C@H](C(=O)N1CCC[C@H]1c1ncc(-c2ccc3c(c2)COc2cc4c(ccc5nc([C@@H]6CCCN6C(=O)[C@@H](NC(=O)OC)C(C)C)[nH]c54)cc2-3)[nH]1)C(C)C [Example 422] | 0.001 to 0.999 | 0.017 | 0.001 to 0.999 | 0.001 to 0.999 | 0.001 to 0.99 | 0.001 to 0.99 | 0.001 to 0.999 | 1 to 44 | – | – | – | – | – | – | – | – | – | –
13 | COC(=O)N[C@H](C(=O)N1CCC[C@H]1c1ncc(-c2ccc3c(c2)COc2cc4c(ccc5nc([C@@H]6CCCN6C(=O)[C@H](NC(=O)OC)c6ccccc6)[nH]c54)cc2-3)[nH]1)C(C)C [Example 423] | 0.001 to 0.999 | 0.02 | 0.001 to 0.999 | 0.001 to 0.999 | 0.001 to 0.99 | 0.001 to 0.99 | 0.001 to 0.999 | 0.001 to 0.999 | – | – | – | – | – | – | – | – | – | –
14 | COC(=O)N[C@H](C(=O)N1[C@H]2CC[C@H](C2)[C@H]1c1nc2ccc3cc(-c4ccc(-c5cnc([C@@H]6CCCN6C(=O)[C@H](NC(=O)OC)c6ccccc6)[nH]5)cc4)ccc3c2[nH]1)C(C)C [Example 424] | 0.001 to 0.999 | 0.028 | 0.001 to 0.999 | 0.001 to 0.999 | 0.001 to 0.99 | 0.001 to 0.99 | 1 to 44 | 0.001 to 0.999 | – | – | – | – | – | – | – | – | – | –
15 | COC(=O)N[C@H](C(=O)N1CCC[C@H]1c1nc2ccc3cc4c(cc3c2[nH]1)OCc1cc(-c2cnc([C@@H]3CCCN3C(=O)[C@H](NC(=O)OC)c3ccccc3)[nH]2)ccc1-4)C(C)C [Example 426] | 0.001 to 0.999 | 0.033 | 0.001 to 0.999 | 0.001 to 0.999 | 0.001 to 0.99 | 0.001 to 0.99 | 0.001 to 0.999 | 0.001 to 0.999 | – | – | – | – | – | – | – | – | – | –
16 | COC(=O)N[C@H](C(=O)N1[C@H]2CC[C@H](C2)[C@H]1c1nc2ccc3cc(-c4ccc5c(ccc6nc([C@@H]7CCCN7C(=O)[C@H](NC(=O)OC)c7ccccc7)[nH]c65)c4)ccc3c2[nH]1)C(C)C [Example 430] | 0.001 to 0.999 | 0.036 | 0.001 to 0.999 | 0.001 to 0.999 | 0.001 to 0.99 | 0.001 to 0.99 | 1 to 44 | 0.001 to 0.999 | – | – | – | – | – | – | – | – | – | –
17 | COC[C@@H]1C[C@@H](c2nc3ccc4cc5c(cc4c3[nH]2)OCc2cc(-c3cnc([C@@H]4CCCN4C(=O)[C@@H](NC(=O)OC)C(C)C)[nH]3)ccc2-5)N(C(=O)[C@H](NC(=O)OC)c2ccccc2)C1 [Example 589] | – | – | – | 0.001 to 0.999 | – | 0.001 to 0.99 | 0.001 to 0.999 | 0.001 to 0.999 | – | – | – | – | – | – | – | 0.001 to 0.999 | 0.001 to 0.999 | 0.001 to 0.99
18 | COC(=O)N[C@H](C(=O)N1[C@@H](C)CC[C@H]1c1ncc(-c2ccc3c(c2)COc2cc4c(ccc5nc([C@@H]6CC[C@H](C)N6C(=O)[C@@H](NC(=O)OC)[C@@H](C)OC)[nH]c54)cc2-3)[nH]1)[C@@H](C)OC [Example 592] | – | – | – | 0.001 to 0.999 | – | 0.001 to 0.99 | 0.001 to 0.999 | 0.001 to 0.999 | – | – | – | – | – | – | – | 0.001 to 0.999 | 0.001 to 0.999 | 0.001 to 0.99
